Data set [1] can be described thus: Microsomal intrinsic clearance, human liver microsomes. It counts as in vitro ADME. The note with it: human liver microsomes (pooled), pH 7.4, 45 min, NADPH. How it is done:
(§1) The compounds of the invention (1 μM) were incubated in suspension with human (rat or mouse) liver microsomes pooled from multiple donors (>10) and samples taken at 5 time points over the course of a 45 min experiment and analysed by LC MS/MS. Microsomes (final protein concentration 0.5 mg/mL), 0.1 M phosphate buffer pH 7.4 and test compound (final substrate concentration 1 μM; final DMSO concentration 0.25%) were pre-incubated at 37° C. prior to the addition of NADPH (final concentration 1 mM) to initiate the reaction. A minus cofactor control incubation was included for each compound tested where 0.1 M phosphate buffer pH 7.4 is added instead of NADPH (minus NADPH). All incubations were performed in duplicate for each test compound and the results averaged. Each compound is incubated for 0, 5, 15, 30 and 45 min. The control (minus NADPH) was incubated for 45 min only. The reactions were stopped by transferring incubate into acetonitrile at the appropriate time points, in a 1:3 ratio.
(§2) The termination plates were centrifuged at 3,000 rpm for 20 min at 4° C. to precipitate the protein. Following protein precipitation, the sample supernatants were combined in cassettes of up to 4 compounds, internal standard added and samples analysed by LC-MS/MS. From a plot of ln peak area ratio (compound peak area/internal standard peak area) against time, the gradient of the line is determined. Subsequently, half-life (t½) and intrinsic clearance (CLint) are calculated using the equations below: Elimination rate constant (k)=(−gradient) Half-life (t1/2)(min)=0.693/k Intrinsic clearance (i.e. CLint)(μL/min/mg protein)=V×0.693/t1/2 where V=Incubation volume (μL)/Microsomal protein (mg)
(§3) Verapamil and dextromethorphan were included in the assay as controls and if the values for these compounds were not within the specified limits the results were rejected and the experiment repeated.
A general note: Liver microsomes are vesicles of endoplasmic reticulum, rich in cytochrome P450 enzymes.

A short description of data set [2]: Microsomal intrinsic clearance, mouse liver microsomes. It counts as in vitro ADME. Conditions: mouse liver microsomes (pooled), pH 7.4, 45 min, NADPH. The method, then: as §1, §2, §3
For data set [3], the target named is T1, PfATP-4 (Plasmodium falciparum, UniProt A0A143ZZK9).
T1 construct: Saponin-isolated parasites at a density of 1.4-1.8×10^8 cells/mL; endogenous in cells
Nature of the data set: Effect on cytosolic [Na+] in saponin-isolated Plasmodium falciparum (sodium flux assay, SBFI). It counts as cell-based. Conditions: SBFI-loaded 3D7 parasites, compound at 1 μM. The text has this: The ability of compounds of the invention to function as inhibitors of the Na+/H+-ATPase, which regulates parasite cytosolic sodium concentration has been tested in the following assay. Their effect on cytosolic sodium can be measured using a sodium flux assay (Biochemical characterization and chemical inhibition of PfATP4-associated Na+-ATPase activity in Plasmodium falciparum membranes. Rosling J. E. O. et al., 2018, J. Biol. Chem., 293: 13397). Saponin-isolated parasites at a density of 1.4-1.8×10^8 cells/mL, were suspended in bicarbonate-free RPMI1640 supplemented with 20 mM D-glucose, 0.2 mM hypoxanthine, 25 mM HEPES and 25 mg/L gentamycin sulfate (pH 7.10), then treated with sodium-binding benzofuran isophthalate acetoxymethyl ester ([…]) and Pluronic F-127 (0.01% w/v) for 20 min at 37° C. The dye-loaded cells were washed twice (12,000 g, 0.5 min) in bicarbonate-free RPMI then incubated for a further 20 min at 37° C. to allow for complete de-esterification of the dye before being resuspended at a final cell concentration of 1.5-2.5×10^7 cells/mL in standard saline. […] [Na+] was determined according to reference to a calibration curve of the 340/380 nm fluorescence ratio as described previously (In situ calibration and [H+] sensitivity of the fluorescent Na+ indicator SBFI. Diarra A. et al., 2001, Am. J. Physiol. Cell Physiol., 280: 1623).

Data set [4] in a line: Pharmacokinetic profile in dog (IV). Conditions: in vivo; for clearance: read-out: Cl (dog); for half-life: read-out: t½ (dog) (converted).
The nature of data set [5]: Microsomal intrinsic clearance, rat liver microsomes. The format is in vitro ADME. The note with it: rat liver microsomes (pooled), pH 7.4, 45 min, NADPH. How it is done: as §1, §2, §3
Data set [6] can be described thus: PK parameters in mouse (IV and PO). The format is in vivo. Conditions: for PK parameters (mouse): F: 10 mg/kg IV and 10 mg/kg PO; for clearance / half-life: male, Swiss Albino, plasma, IV arm, 10 mg/kg; for clearance: read-out: PK parameters (mouse): Cl; for half-life: read-out: PK parameters (mouse): t1/2. The method, then:
Swiss Albino male mice or Sprague Dawley rats (TCGLS, India) were kept under a 12/12 h light/dark cycle, 22±2° C. temp, 50±20% RH with free access to food and water ad libitum. Mice were selected randomly/based on body weight/age and fasted for 4 h before dosing and until 2 h after dosing. Three mice were used per route of administration. […]
Blood samples were taken (mice 50 μL, rat 100 μL) at regular timepoints from the saphenous vein (conscious restrained animals) and collected into heparinized capillary tubes and transferred into 0.5 mL microcentrifuge tubes. Samples were processed by centrifugation at 1640 g for 10 min at +4° C. within 30 min of collection and stored at −20° C. until bioanalysis. All samples were mixed with ice-cold acetonitrile containing an internal standard, centrifuged at 4000 rpm for 15 min at 15° C. Supernatant was then half diluted in water and analysed by LCMS/MS analysis to determine analyte peak area/IS peak area (the ratio). Concentration (plasma) of the compounds of the invention was determined by reference to a calibration curve. Pharmacokinetic parameters (Cmax, Tmax, AUC, t1/2, CL, Vd, BA) were calculated using WinNonLin, using non-compartmental analysis (Phoenix, Version 6.3). The pharmacokinetic parameters for compounds shown in Table 2 support that compounds of the invention have pharmacokinetic properties associated with treatment of malaria via the oral route and that compounds have substantially longer half-lives than the reference compound.

T1 sequence (A0A143ZZK9 whole entry): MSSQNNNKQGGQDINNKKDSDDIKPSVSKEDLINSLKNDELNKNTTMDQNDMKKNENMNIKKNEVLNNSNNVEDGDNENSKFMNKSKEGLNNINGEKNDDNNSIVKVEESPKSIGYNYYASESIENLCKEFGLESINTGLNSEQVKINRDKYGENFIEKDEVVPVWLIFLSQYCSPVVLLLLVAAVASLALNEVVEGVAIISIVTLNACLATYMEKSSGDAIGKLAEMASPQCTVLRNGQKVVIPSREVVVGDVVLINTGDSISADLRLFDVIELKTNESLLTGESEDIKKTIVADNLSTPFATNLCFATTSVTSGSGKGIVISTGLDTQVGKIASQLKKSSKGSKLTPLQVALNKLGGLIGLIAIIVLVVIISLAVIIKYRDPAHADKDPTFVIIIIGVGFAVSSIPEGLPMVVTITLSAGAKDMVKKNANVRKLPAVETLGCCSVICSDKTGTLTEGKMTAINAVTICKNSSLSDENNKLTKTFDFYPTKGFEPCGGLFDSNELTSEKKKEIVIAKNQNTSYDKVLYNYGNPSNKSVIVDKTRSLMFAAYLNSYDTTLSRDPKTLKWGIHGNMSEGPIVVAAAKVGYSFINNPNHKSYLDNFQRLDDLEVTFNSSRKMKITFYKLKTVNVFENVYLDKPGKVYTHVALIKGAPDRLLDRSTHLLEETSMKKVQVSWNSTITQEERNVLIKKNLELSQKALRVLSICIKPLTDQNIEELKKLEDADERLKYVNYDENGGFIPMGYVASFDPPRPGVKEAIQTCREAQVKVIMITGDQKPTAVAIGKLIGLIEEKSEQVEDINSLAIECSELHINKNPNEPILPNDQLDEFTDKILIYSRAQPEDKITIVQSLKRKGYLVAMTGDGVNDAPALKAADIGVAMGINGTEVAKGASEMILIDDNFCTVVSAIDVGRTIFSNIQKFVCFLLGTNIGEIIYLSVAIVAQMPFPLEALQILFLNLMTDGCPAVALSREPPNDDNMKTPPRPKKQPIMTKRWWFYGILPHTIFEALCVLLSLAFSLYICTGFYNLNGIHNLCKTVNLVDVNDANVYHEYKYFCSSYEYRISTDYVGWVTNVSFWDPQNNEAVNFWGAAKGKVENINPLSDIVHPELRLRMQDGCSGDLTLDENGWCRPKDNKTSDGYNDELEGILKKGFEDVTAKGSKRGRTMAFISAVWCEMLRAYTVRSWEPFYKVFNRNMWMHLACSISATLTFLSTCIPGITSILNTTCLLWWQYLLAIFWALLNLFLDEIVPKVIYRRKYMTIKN

As to `N#Cc1cc(NC(=O)[C@H]2c3ccccc3C(=O)N(CC(F)(F)F)[C@@H]2c2ccc(OC3CC3)nc2)ccc1F` (single isomer, unassigned) [(1a)], the results for the microsomal CLint at 1 μM in data set [1], in data set [2] and in data set [5] were below 3 µL/min/mg, below 10 µL/min/mg and below 10 µL/min/mg, respectively. In addition, in data set [3], the “Effect on cytosolic [Na+]” value is “increase of cytosolic sodium concentration”. Also, the values for the clearance in data set [4] (IV at 1 mg/kg) and in data set [6] were 0.26 mL/min/kg and 2.17 mL/min/kg, respectively. Further, the figures for the half-life in data set [4] (IV at 1 mg/kg) and in data set [6] were 41 h and 17 h, respectively. Moreover, the “PK parameters (mouse): F” value in data set [6] is on record as “F = 79%”.

As to `N#Cc1cc(NC(=O)[C@H]2c3ccccc3C(=O)N(CC(F)(F)F)[C@@H]2c2cnc(C(F)(F)F)nc2)ccc1F` [(9a), (3S,4S)—N-(3-cyano-4-fluorophenyl)-1-oxo-2-(2,2,2-trifluoroethyl)-3-(2-(trifluoromethyl)pyrimidin-5-yl)-1,2,3,4-tetrahydroisoquinoline-4-carboxamide], the intrinsic metabolic clearance (microsomal CLint) (commonly a measure of how fast metabolising enzymes remove a compound, apart from limits set by blood flow) at 1 μM in data set [1] was below 3 µL/min/mg. This compound also yielded a microsomal CLint at 1 μM in data set [2] of 10.1 µL/min/mg. The “Effect on cytosolic [Na+]” value in data set [3] is “increase of cytosolic sodium concentration”. The compound also gave a microsomal CLint at 1 μM in data set [5] below 10 µL/min/mg. Moreover, in data set [6], the “PK parameters (mouse): F” value is recorded as “F = 92%”, the clearance is 3.17 mL/min/kg and the half-life amounted to 14 h.

With `N#Cc1cc(NC(=O)[C@H]2c3ccccc3C(=O)N(CC(F)(F)F)[C@@H]2c2cccnc2)ccc1F` [(+) SJ-733, 4-Isoquinolinecarboxamide, N-(3-cyano-4-fluorophenyl)-1,2,3,4-tetrahydro-1-oxo-3-(3-pyridinyl)-2-(2,2,2-trifluoroethyl)-, (3S,4S)-, reference compound], the microsomal CLint at 1 μM in data set [1] is 140 µL/min/mg; in data set [2] it was 37 µL/min/mg; in data set [5] it was below 6 µL/min/mg. Besides, the clearance in data set [4] (IV at dose 3 mg/kg) was found to be 3 mL/min/kg; in data set [6] it was 70 mL/min/kg. Further, the half-life is 10 h in data set [4] (IV at dose 3 mg/kg) and 1.1 h in data set [6]. Further, the “PK parameters (mouse): F” value in data set [6] is on record as “F = 66%”.

(Values after patent publication US12509439B2, “Anti-malarial agents” (UNIVERSITY OF KENTUCKY RESEARCH FOUNDATION, priority 2020, dated 2025).)
